Measured values: ChEMBL document CHEMBL1125766, “Synthesis and antiviral activity of certain guanosine analogues in the thiazolo[4,5-d]pyrimidine ring system” (1991)
Where “and” joins values, the source holds several entries; their conditions need not be identical. Equal entries are not always repeated.

What was measured:
Format in all cases: functional
Mus musculus [1] = assay: Compound was tested for mean survival time through 21 days after administration of 100 mg/kg, 24 and 18 hr prior to virus inoculation ( forest virus) in mice
Mus musculus [2] = assay: Compound was tested for mean survival time through 21 days after administration of 200 mg/kg, 24 and 18 hr prior to virus inoculation ( forest virus) in mice
Mus musculus [3] = assay: Compound was tested for its activity against forest virus infection in mice, activity was determined by measuring the number of survived mice after 100 mg/kg administration.
Mus musculus [4] = assay: Compound was tested for its activity against forest virus infection in mice, activity was determined by measuring the number of survived mice after 200 mg/kg administration.
Mus musculus [5] = assay: Compound was tested for mean survival time through 21 days after subcutaneous administration of 150 mg/kg, 24 hr prior to virus inoculation ( forest virus) in mice
Mus musculus [6] = assay: Compound was tested for mean survival time through 21 days after intraperitoneal administration of 150 mg/kg, 24 hr prior to virus inoculation ( forest virus) in mice
Mus musculus [7] = assay: Compound was tested for its activity against intraperitoneal administration.
Mus musculus [8] = assay: Compound was tested for its activity against forest virus infection in mice, activity was determined by measuring the number of survived mice after 150 mg/kg oral administration.
Mus musculus [9] = assay: Compound was tested for its activity against forest virus infection in mice, activity was determined by measuring the number of survived mice after 150 mg/kg subcutaneous administration.
Mus musculus [10] = assay: Compound was tested for mean survival time through 21 days after oral administration of 150 mg/kg, 24 hr prior to virus inoculation ( forest virus) in mice
Mus musculus [11] = assay: Compound was tested for mean survival time through 21 days after intravenous administration of 150 mg/kg, 24 hr prior to virus inoculation ( forest virus) in mice
Mus musculus [12] = assay: Compound was tested for its activity against forest virus infection in mice, activity was determined by measuring the number of survived mice after 150 mg/kg intravenous administration.
Mus musculus [13] = assay: Compound was tested for its activity against forest virus infection in mice, activity was determined by measuring the number of survived mice after 100 mg/kg administration
Mus musculus [14] = assay: Compound was tested for its activity against forest virus infection in mice, activity was determined by measuring the number of survived mice after 50 mg/kg administration
Mus musculus [15] = assay: Compound was tested for mean survival time through 21 days after administration of 25 mg/kg, 24 and 18 hr prior to virus inoculation ( forest virus) in mice
Mus musculus [16] = assay: Compound was tested for its activity against forest virus infection in mice, activity was determined by measuring the number of survived mice after 25 mg/kg administration

SMILES | Mean survival time (Mus musculus [1]) | Mean survival time (Mus musculus [2]) | Survivors (Mus musculus [3]) | Survivors (Mus musculus [4]) | Mean survival time (Mus musculus [5]) | Mean survival time (Mus musculus [6]) | Survivors (Mus musculus [7]) | Survivors (Mus musculus [8]) | Survivors (Mus musculus [9]) | Mean survival time (Mus musculus [10]) | Mean survival time (Mus musculus [11]) | Survivors (Mus musculus [12]) | Survivors (Mus musculus [13]) | Survivors (Mus musculus [14]) | Mean survival time (Mus musculus [1]; 100 mg/kg) | Mean survival time (Mus musculus [15]) | Survivors (Mus musculus [16])
Nc1nc(O)c2sc(=O)n(C(CO)OC(CO)CO)c2n1 (stereo not given) | 7 days | 7.8 days | 8% | 0% |  |  |  |  |  |  |  |  |  |  |  |  | 
CC(=O)OC[C@H]1O[C@@H](n2c(=O)sc3c(O)nc(N)nc32)[C@H](OC(C)=O)[C@@H]1OC(C)=O |  |  |  |  | 7 days | 8 days | 92% | 17% | 82% | 6.6 days | 7.9 days | 42% |  |  |  |  | 
Nc1nc(O)c2sc(=O)n(C3O[C@H](COS(N)(=O)=O)[C@@H](O)[C@H]3O)c2n1 (stereo not given in full) | 8 days | 8.2 days | 17% | 8% |  |  |  |  |  |  |  |  |  |  |  |  | 
C[C@H]1OC(n2c(=O)sc3c(O)nc(N)nc32)[C@H](O)[C@@H]1O (stereo not given in full) | 8 days | 8.4 days | 8% | 0% |  |  |  |  |  |  |  |  |  |  |  |  | 
Nc1nc(=O)c2sc(=O)n([C@@H]3O[C@H](CO)[C@@H](O)[C@H]3O)c2[nH]1 [ISATORIBINE] |  | >21 days | 92% | 100% | >21 days | 7 days | 91% | 25% | 100% | 7.1 days | 8 days | 73% | 50% | 25% | 6.5 days and 10 days | 8.8 days and 7.2 days | 25%
Nc1nc(O)c2sc(=O)n([C@H]3C[C@H](O)[C@@H](CO)O3)c2n1 | 6.8 days | 7 days | 50% | 83% |  |  |  |  |  |  |  |  |  |  |  |  | 
Nc1nc(O)c2sc(=O)n(C3O[C@H](COP(=O)(O)O)[C@@H](O)[C@H]3O)c2n1 (stereo not given in full) | 6.5 days |  |  |  |  |  |  |  |  |  |  |  | 67% | 50% |  | 8.1 days and 7.1 days | 25%
Nc1nc(O)c2sc(=O)n([C@@H]3O[C@@H]4COP(=O)(O)O[C@H]4[C@H]3O)c2n1 | 7 days |  |  |  |  |  |  |  |  |  |  |  | 50% | 17% |  | 7.1 days and 7.3 days | 42%
